Assays:
[1] = Inhibition against Alpha-maninosidase in jack bean; set-up: species or system Canavalia ensiformis
[2] = target: T1, Beta-galactosidase (Bos taurus, UniProt Q58D55); experiment: Inhibition against beta-galactosidase in bovine liver; NI is No Inhibition at 1 mM
T1 sequence (Q58D55 whole entry): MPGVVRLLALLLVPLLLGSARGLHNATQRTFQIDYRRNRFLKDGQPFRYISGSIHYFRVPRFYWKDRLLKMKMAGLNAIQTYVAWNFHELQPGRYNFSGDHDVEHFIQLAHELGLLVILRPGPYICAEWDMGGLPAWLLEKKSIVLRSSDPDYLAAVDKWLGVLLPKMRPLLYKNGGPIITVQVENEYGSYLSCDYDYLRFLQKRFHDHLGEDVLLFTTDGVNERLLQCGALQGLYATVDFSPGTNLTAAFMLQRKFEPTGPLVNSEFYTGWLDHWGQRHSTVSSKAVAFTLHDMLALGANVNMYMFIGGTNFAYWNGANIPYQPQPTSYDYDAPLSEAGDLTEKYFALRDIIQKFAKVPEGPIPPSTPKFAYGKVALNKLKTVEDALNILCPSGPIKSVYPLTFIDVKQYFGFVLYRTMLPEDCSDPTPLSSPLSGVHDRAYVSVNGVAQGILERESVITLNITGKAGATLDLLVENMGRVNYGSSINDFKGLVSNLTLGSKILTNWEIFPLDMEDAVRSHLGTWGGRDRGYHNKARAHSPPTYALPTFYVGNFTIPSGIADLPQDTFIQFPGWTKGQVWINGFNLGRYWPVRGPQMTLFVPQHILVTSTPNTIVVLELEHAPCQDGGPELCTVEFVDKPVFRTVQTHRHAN

[3] = pKa value was determined for the compound by 1H NMR titration; format: physicochemical

Row | Ki [1] | Ki [2] | pKa [3] | Compound
1 | 14000 µM |  |  | c1ccc(CNC2=NCCCC2)cc1
2 | 1400 µM |  |  | OCC1CCCC(NCc2ccccc2)=N1 (configuration not stated)
3 | 0.55 µM | No inhibition | 10 | OC[C@@H]1N=C(NCc2ccccc2)[C@@H](O)[C@@H](O)[C@@H]1O
4 | 2.6 µM | No inhibition |  | CO[C@H]1O[C@@H](CNC2=N[C@@H](CO)[C@@H](O)[C@H](O)[C@@H]2O)[C@@H](O)[C@H](O)[C@H]1O

— ChEMBL document CHEMBL1128073, “Inhibition of glycosidases by substituted amidines” (Bioorg Med Chem Lett, 1995)
